Test results taken from US20260008801A1, “BIO-BASED SURFACTANTS DERIVED FROM CARBOHYDRATES” (COÖPERATIE KONINKLIJKE COSUN U.A., priority 2022, published 2026).

Columns and labels:
[1] = Foaming power and stability, Ultra-Turrax, 0.4% aq. surfactant; format: physicochemical; conditions: Table E5.2
Experimental: Foaming power was also tested at room temperature with 5 mL of 0.4% aq. surfactant (20 mg) solution in a 50 mL measuring cylinder. After performing the Ultra-Turrax (a registered trademark for a high-performance dispersing instrument) for 20 seconds (8000 rpm), the initial height of the foam was measured for foam height. (volume in mL). Every time step of, 1, 3, 5, 10, 30, 60 minutes was noted. In addition, after 24 hours the stability was checked. Particularly, foaming power and stability of the surfactants were performed using an IKA Ultra-Turrax T25 with an 18 G dispersing element. At room temperature, an aqueous solution of 5 mL 0.4% surfactant in a 50 mL measuring cylinder (2.20 cm diameter) was mixed with the Ultra-Turrax for 20 seconds at 8000 rpm. The foam height (volume in mL) was denoted for 0, 1, 3, 5, 10, 30, 60 min and 24 hours. In addition, after 24 hours the stability was checked.

[2] = Foaming abilities, 1% compound solutions shaken by hand; format: physicochemical; design: key to FOAM: −: no foam formation; +: low foam formation; ++: moderate foam formation; +++: strong foam formation; conditions: Table E5; pH > 7.3
Experimental: Foaming abilities were evaluated at room temperature by shaking 1% compound solutions (2 ml) of pH 3, 7, and 12 by hand for 10 s. The pH of each solution was assessed with a pH meter at room temperature. […] The foam heights at the initial time were compared to one another after which the foaming abilities were classified according to no foam formation (−), low foam formation (+), moderate foam formation (++), and strong foam formation (+++).

[3] = Surface tension measurements, Wilhelmy plate (surface tension, CMC); format: physicochemical
Experimental: Surface tension measurements were performed with a Biolin Scientific Sigma701 automatic tension meter equipped with a Wilhelmy plate made of platinum (±0.5 mN/m). […] The number of experimental points is related to the compound's/surfactant's solubility and available quantity. All compound/surfactant solutions were allowed to stand 12 h before being measured. The platinum plate was thoroughly cleaned with demi water and flame-dried before each measurement. The CMC of each compound/surfactant was determined at the minimum of a breakpoint of a conventional plot of surface tension versus compound/surfactant concentration. DCMC was obtained by acquiring the surface tension at the CMC. The pC20 value was determined by taking the minus log of the concentration compound/surfactant at a surface tension of 52 mN/m.

[4] = Solubility in water (excess of compound in 4 ml demi water); format: physicochemical
Experimental: Solubility is preferably solubility in aqueous solution, more preferably solubility in water, most preferably solubility in demineralised water. A skilled person knows how to assess such solubility.
Solubility in water was determined by preparing mixtures of an excess of compound dispersed in 4 ml demi water using a vortex at maximum speed for 1 min. […] 1 ml of the mixture was concentrated in vacuo to yield a solid. The mass of the solid was determined in mg to calculate the solubility in percentage by dividing by ten.

[5] = test system: activated sludge from a municipal wastewater treatment plant (WWTP); experiment: Biodegradability, OECD 301A DOC Die-Away Test (adjusted); conditions: inoculum with compound and sodium acetate
Experimental: Biodegradability of compounds was assessed. The compound is added to an inoculate of activated sludge from a municipal wastewater treatment plant (WWTP). The experiment relies on the basic principles of the 301A DOC Die-Away Test described in the OECD guidelines for readily biodegradable substances. A small adjustment was made where the measuring is not done in conical flasks but, instead, in serum vials closed with butylrubber stoppers. This allowed measurement of the evolution of CO2 and O2 over time. In general, the experiment involves the experimental incubation (inoculum and compound), along with a blank control (inoculum no compound), a positive control (inoculum and sodium acetate), and controls for abiotic degradation (compound in medium), adsorption (compound with sterilized inoculum), and toxicity (inoculum with compound and sodium acetate).
The fresh sludge was conditioned overnight by bubbling with air at room temperature. […]
Incubations were prepared containing approximately 70 mg/L surfactant and 3 ml sludge in a final volume of 30 ml mineral medium in a borosilicate serum vial crimp-sealed with a butyl rubber stopper. […] 1 ml samples were taken weekly for surfactant quantification and centrifuged 5 min at 20.000×g. […] CO2 was analyzed by measuring headspace gas on an Agilent 8890A/5977B GC-MS equipped with an Agilent 6 FT Porapak Q 80/10 column. […]

Zein = Zein solubilisation (skin irritation potential); conditions: pH 7; SDS set as 100
Experimental: Zein solubilisation was measured to determine the irritation of the surfactants. Zein is a simple protein found in corn. It is a very simple mimic of skin protein, the more solubilised by your material the harsher the potential to irritate and dry the skin. This method is a quick screen and provides indicative data. The procedure is 1) Weight 2-2.5 ml Eppendorf's on a 4 dp balance. 2) Weight out as accurately as possible 70 mg of Zein. 3) Add to the Eppendorf and reweigh. 4) Make your surfactant dilutions. 5) Add 1 ml of the surfactant dilution to the Eppendorf. 6) Place this on a rotary mixer for 20 mins at 20 rpm at RT. 7) Remove and centrifuge for 4 mins at highest speed available on a micro centrifuge 8) Discard the supernatant making sure as much of it possible is removed. 9) Repeat with water, centrifuge and discard supernatant. 10) With the Eppendorf lid open, place at 50° C. overnight to dry (48 hours required). 11) Re-weigh the next day. 12) Calculate the amount of Zein solubilised. The obtained data allows comparison of surfactants and their harshness to skin. Decisions for in vivo testing can be based on good Zein results.
The skin irritation potential of the surfactants was investigated using zein solubilisation, which is a commonly known assay. Zein is a very simple mimic of skin protein. The more zein is solubilized by the surfactant the harsher the potential to irritate and dry the human skin. […] The surfactants were measured at different pH values, a pH of 4-5, 7 and at their original pH as is.

## CCCCCCCCN(C)C[C@H](O)[C@@H](O)[C@@H](O)[C@H](O)C(=O)O [Compound 31, N-methyl-N-octyl-D-galacturonic acid amine]
[1]; foam volume after 1 min
  Foamability (mL) after (min) 1: 4.5 mL
[1]; foam volume after 5 min
  Foamability (mL) after (min) 5: 4 mL
[1]; foam volume after 10 min
  Foamability (mL) after (min) 10: 4 mL
[2]
  FOAM: ++
[3]; Table E5
  CMC (%): 1.15%
[3]; Table E5, room temperature, pH 7
  SURFACE TENSION: 32.067 mN/m
[3]; Table E5.2
  CMC (%): 1.15%
  Surface tension (nM/m): 32.1 mN/m
[3]; running text b302
  SURFACE TENSION: 31.5 mN/m
[4]
  solubility in H2O: 15%
[4]; Table E5
  SOLUBILITY (H2O): 15%
[4]; Table E5.2, water
  Solubility: 15%
[5]
  inhibition of breakdown of acetate (toxicity control): did not inhibit
Zein
  zein score / skin irritation potential value: 1
